Test results published in US20250215101A1, “DR5 Agonist and PLK1 Inhibitor or CDK Inhibitor Combination Therapy” (Inhibrx Biosciences, Inc., priority 2022, published 2025).
Where two headings read alike, the source gives them in different places.

Key:
Format in all cases: cell-based
HT-29 = assay: Cell viability (CellTiter-Glo) cytotoxicity assay, INBRX-109 x onvansertib matrix, 48 h; settings: for Max Cytotox at 200 nM: HT-29; for EC50: Homo sapiens, HT-29, HT-29
Method: (§1) Monolayer cultures of each cell line were harvested for compound screening as detailed below.
(§2) Onvansertib: A 10 mg stock of onvansertib was purchased from Selleck Chemicals and was resuspended to 10 mM in DMSO. This was then aliquoted and stored at −80° C. Aliquots were thawed immediately prior to dilution and use in the assay. A 500× master plate of serial dilutions (6-point 5-fold dilutions in 100% DMSO starting at 500 μM, plus a DMSO only control) was prepared and mixed gently with a pipette. To generate a 5× working dilution plate of onvansertib, a 1:100 dilution was performed from the 500× plate into complete media (EMEM).
(§3) Also on day 2, test and control articles were added.
(§4) On day 4, viability measurements were taken. […] Data was graphed in GraphPad Prism 9.

LS411N = assay: as above; settings: for EC50: Homo sapiens, LS-411N
Method: as §1, §2, §3, §4

LS174T = assay: as above; settings: for EC50: Homo sapiens
Method: as §1, §2, §3, §4

SW1463 = assay: as above; settings: for EC50: Homo sapiens, SW1463, SW1463; for Max Cytotox at 200 nM: SW1463
Method: as §1, §2, §3, §4

SW620 = assay: as above; settings: for EC50: Homo sapiens, SW-620, SW620; for Max Cytotox at 200 nM: SW620
Method: as §1, §2, §3, §4

SW837 = assay: as above; settings: for EC50: Homo sapiens, SW837, SW837; for Max Cytotox at 200 nM: SW837
Method: as §1, §2, §3, §4

Panc 10.05 = assay: Cytotoxicity assay, pancreatic cell line panel, onvansertib +/- 1 nM INBRX-109; settings: for EC50: Homo sapiens, Panc1005, Panc 10.05; for Max Cytotox at 600 nM: Panc 10.05
Method: as §1, §3, §4
(§5) The results for a panel of colorectal cancer cell lines are shown in Table 3 and FIGS. 4-6, and the results for a panel of pancreatic cell lines are shown in Table 4 and FIGS. 7 and 8.

SW-1990 = assay: as above; settings: for EC50: Homo sapiens, SW1990, SW-1990; for Max Cytotox at 600 nM: SW-1990
Method: as §1, §3, §4, §5

HPAF-II = assay: as above; settings: for EC50: Homo sapiens
Method: as §1, §3, §4, §5

HuP-T4 = assay: as above; settings: for EC50: Homo sapiens, HuP-T4, HuP-T4; for Max Cytotox at 600 nM: HuP-T4
Method: as §1, §3, §4, §5

CFPAC-1 = assay: as above; settings: for Max Cytotox at 600 nM: CFPAC-1; for EC50: Homo sapiens, CFPAC-1, CFPAC-1
Method: as §1, §3, §4, §5

KP4 = assay: as above; settings: for EC50: Homo sapiens, KP-4, KP4; for Max Cytotox at 600 nM: KP4
Method: as §1, §3, §4, §5

Panc 03.27 = assay: as above; settings: for EC50: Homo sapiens, PANC-03-27, Panc 03.27; for Max Cytotox at 600 nM: Panc 03.27
Method: as §1, §3, §4, §5

Capan-2 = assay: as above; settings: for Max Cytotox at 600 nM: Capan-2; for EC50: Homo sapiens, Capan-2, Capan-2
Method: as §1, §3, §4, §5

SU.86.86 = assay: as above; settings: for EC50: Homo sapiens, SU.86.86, SU.86.86; for Max Cytotox at 600 nM: SU.86.86
Method: as §1, §3, §4, §5

PANC-1 = assay: as above; settings: for EC50: Homo sapiens, PANC-1, PANC-1; for Max Cytotox at 600 nM: PANC-1
Method: as §1, §3, §4, §5

PSN-1 = assay: as above; settings: for EC50: Homo sapiens, PSN1, PSN-1; for Max Cytotox at 600 nM: PSN-1
Method: as §1, §3, §4, §5

Capan-1 = assay: as above; settings: for Max Cytotox at 600 nM: Capan-1; for EC50: Homo sapiens, CAPAN-1, Capan-1
Method: as §1, §3, §4, §5

MIA PaCa-2 = assay: as above; settings: for EC50: Homo sapiens, MIA PaCa-2, MIA PaCa-2; for Max Cytotox at 600 nM: MIA PaCa-2
Method: as §1, §3, §4, §5

Panc 05.04 = assay: as above; settings: for EC50: Panc 05.04, Panc 05.04; for Max Cytotox at 600 nM: Panc 05.04
Method: as §1, §3, §4, §5

BxPC-3 = assay: as above; settings: for Max Cytotox at 600 nM: BxPC-3; for EC50: Homo sapiens, BXPC-3, BxPC-3
Method: as §1, §3, §4, §5

AsPC-1 = assay: as above; settings: for Max Cytotox at 600 nM: AsPC-1; for EC50: Homo sapiens, ASPC1, AsPC-1
Method: as §1, §3, §4, §5

PL45 = assay: as above; settings: for EC50: PL45, PL45; for Max Cytotox at 600 nM: PL45
Method: as §1, §3, §4, §5

For `CN1CCN(c2ccc(OC(F)(F)F)c(Nc3ncc4c(n3)-c3c(c(C(N)=O)nn3CCO)CC4)c2)CC1` [Onvansertib], the “Max Cytotox at 200 nM” value (HT-29; onvansertib + 1 nM INBRX-109) was 94.63%, the “Max Cytotox at 200 nM” value (HT-29; onvansertib only) was 5.54% and the EC50 (HT-29; onvansertib + 1 nM INBRX-109) was 21.4 nM. The EC50 (HT-29; onvansertib only) was ~2.3 nM, the EC50 (LS411N; onvansertib + 1 nM INBRX-109, read-out: EC50) was ~1.03e-05 mM and the EC50 (LS411N; onvansertib only, read-out: EC50) was ~4.15 mM. The “Max Cytotox at 200 nM” value (LS411N; onvansertib + 1 nM INBRX-109) was 84.45%, the “Max Cytotox at 200 nM” value (LS411N; onvansertib only) was 12.35% and the EC50 (LS174T; onvansertib + 1 nM INBRX-109) was ~54.7 nM. The EC50 (LS174T; onvansertib only) was ~197 nM, the “Max Cytotox at 200 nM” value (LS174T; onvansertib + 1 nM INBRX-109) was 79.32% and the “Max Cytotox at 200 nM” value (LS174T; onvansertib only) was 16.93%. The EC50 (SW1463; onvansertib + 1 nM INBRX-109) was ~38.2 nM, the EC50 (SW1463; onvansertib only) was 124 nM and the “Max Cytotox at 200 nM” value (SW1463; onvansertib + 1 nM INBRX-109) was 74.39%. The “Max Cytotox at 200 nM” value (SW1463; onvansertib only) was 25.79%, the EC50 (SW620; onvansertib + 1 nM INBRX-109) was 30.4 nM and the EC50 (SW620; onvansertib only) was 31.3 nM. For the same molecule, the “Max Cytotox at 200 nM” value (SW620; onvansertib + 1 nM INBRX-109) was 87.53%, the “Max Cytotox at 200 nM” value (SW620; onvansertib only) was 51.37% and the EC50 (SW837; onvansertib + 1 nM INBRX-109) was ~0.0432 µM. For the same molecule, the EC50 (SW837; onvansertib only) was 27.2 µM, the “Max Cytotox at 200 nM” value (SW837; onvansertib + 1 nM INBRX-109) was 80.64% and the “Max Cytotox at 200 nM” value (SW837; onvansertib only) was 27.17%. The EC50 (Panc 10.05; onvansertib + 1 nM INBRX-109) was 81.7 nM, the EC50 (Panc 10.05; onvansertib only) was 81.9 nM and the “Max Cytotox at 600 nM” value (Panc 10.05; onvansertib + 1 nM INBRX-109) was 83.3%. For the same molecule, the “Max Cytotox at 600 nM” value (Panc 10.05; onvansertib only) was 47.2%, the EC50 (SW-1990; onvansertib + 1 nM INBRX-109) was 598 nM and the EC50 (SW-1990; onvansertib only) was 700 nM. For the same molecule, the “Max Cytotox at 600 nM” value (SW-1990; onvansertib + 1 nM INBRX-109) was 68.7%, the “Max Cytotox at 600 nM” value (SW-1990; onvansertib only) was 13.4% and the EC50 (HPAF-II; onvansertib + 1 nM INBRX-109) was 51.9 nM. For the same molecule, the EC50 (HPAF-II; onvansertib only) was 63.3 nM, the “Max Cytotox at 600 nM” value (HPAF-II; onvansertib + 1 nM INBRX-109) was 68.2% and the “Max Cytotox at 600 nM” value (HPAF-II; onvansertib only) was 27.2%. For the same molecule, the EC50 (HuP-T4; onvansertib + 1 nM INBRX-109) was 35.1 nM, the EC50 (HuP-T4; onvansertib only) was 138 nM and the “Max Cytotox at 600 nM” value (HuP-T4; onvansertib + 1 nM INBRX-109) was 85.3%. The “Max Cytotox at 600 nM” value (HuP-T4; onvansertib only) was 33.7%, the “Max Cytotox at 600 nM” value (CFPAC-1; onvansertib + 1 nM INBRX-109) was 86.4% and the “Max Cytotox at 600 nM” value (CFPAC-1; onvansertib only) was 45.3%. For the same molecule, the EC50 (CFPAC-1; onvansertib + 1 nM INBRX-109) was 154 nM, the EC50 (CFPAC-1; onvansertib only) was 134 nM and the EC50 (KP4; onvansertib + 1 nM INBRX-109) was 82.4 nM. For the same molecule, the EC50 (KP4; onvansertib only) was 105 nM, the “Max Cytotox at 600 nM” value (KP4; onvansertib + 1 nM INBRX-109) was 97.8% and the “Max Cytotox at 600 nM” value (KP4; onvansertib only) was 74.7%. The EC50 (Panc 03.27; onvansertib + 1 nM INBRX-109) was 90 nM, the EC50 (Panc 03.27; onvansertib only) was 122 nM and the “Max Cytotox at 600 nM” value (Panc 03.27; onvansertib + 1 nM INBRX-109) was 87.5%. The “Max Cytotox at 600 nM” value (Panc 03.27; onvansertib only) was 36.7%, the “Max Cytotox at 600 nM” value (Capan-2; onvansertib + 1 nM INBRX-109) was 46.2% and the “Max Cytotox at 600 nM” value (Capan-2; onvansertib only) was 3.9%. It also gave an EC50 (Capan-2; onvansertib + 1 nM INBRX-109) of 134 nM, an EC50 (Capan-2; onvansertib only) of 150 nM and an EC50 (SU.86.86; onvansertib + 1 nM INBRX-109) of 91.4 nM. For the same molecule, the EC50 (SU.86.86; onvansertib only) was 629 nM, the “Max Cytotox at 600 nM” value (SU.86.86; onvansertib + 1 nM INBRX-109) was 98.9% and the “Max Cytotox at 600 nM” value (SU.86.86; onvansertib only) was 30.5%. The EC50 (PANC-1; onvansertib + 1 nM INBRX-109) was 121 nM, the EC50 (PANC-1; onvansertib only) was 152 nM and the “Max Cytotox at 600 nM” value (PANC-1; onvansertib + 1 nM INBRX-109) was 87.2%. For the same molecule, the “Max Cytotox at 600 nM” value (PANC-1; onvansertib only) was 36.2%, the EC50 (PSN-1; onvansertib + 1 nM INBRX-109) was 63 nM and the EC50 (PSN-1; onvansertib only) was 85.3 nM. The “Max Cytotox at 600 nM” value (PSN-1; onvansertib + 1 nM INBRX-109) was 98.0%, the “Max Cytotox at 600 nM” value (PSN-1; onvansertib only) was 83.2% and the “Max Cytotox at 600 nM” value (Capan-1; onvansertib + 1 nM INBRX-109) was 94.3%. The “Max Cytotox at 600 nM” value (Capan-1; onvansertib only) was 27.8%, the EC50 (Capan-1; onvansertib + 1 nM INBRX-109) was 79 nM and the EC50 (Capan-1; onvansertib only) was 186 nM. For the same molecule, the EC50 (MIA PaCa-2; onvansertib + 1 nM INBRX-109) was 81.3 nM, the EC50 (MIA PaCa-2; onvansertib only) was 179 nM and the “Max Cytotox at 600 nM” value (MIA PaCa-2; onvansertib + 1 nM INBRX-109) was 96.4%. For the same molecule, the “Max Cytotox at 600 nM” value (MIA PaCa-2; onvansertib only) was 67.0%, the EC50 (Panc 05.04; onvansertib + 1 nM INBRX-109) was 61.1 nM and the EC50 (Panc 05.04; onvansertib only) was 205 nM. For the same molecule, the “Max Cytotox at 600 nM” value (Panc 05.04; onvansertib + 1 nM INBRX-109) was 97.4%, the “Max Cytotox at 600 nM” value (Panc 05.04; onvansertib only) was 44.4% and the “Max Cytotox at 600 nM” value (BxPC-3; onvansertib + 1 nM INBRX-109) was 91.8%. For the same molecule, the “Max Cytotox at 600 nM” value (BxPC-3; onvansertib only) was 70.1%, the EC50 (BxPC-3; onvansertib + 1 nM INBRX-109) was 119 nM and the EC50 (BxPC-3; onvansertib only) was 139 nM. For the same molecule, the “Max Cytotox at 600 nM” value (AsPC-1; onvansertib + 1 nM INBRX-109) was 60.0%, the “Max Cytotox at 600 nM” value (AsPC-1; onvansertib only) was 19.9% and the EC50 (AsPC-1; onvansertib + 1 nM INBRX-109) was 230 nM. For the same molecule, the EC50 (AsPC-1; onvansertib only) was 444 nM, the EC50 (PL45; onvansertib + 1 nM INBRX-109) was 68.1 nM and the EC50 (PL45; onvansertib only) was 83.6 nM. The “Max Cytotox at 600 nM” value (PL45; onvansertib + 1 nM INBRX-109) was 82.2% and the “Max Cytotox at 600 nM” value (PL45; onvansertib only) was 56.5%.
